# Assay results from patent US12590088B2, “Jak inhibitor compound and pharmaceutical composition including the same” (KOREA PHARMA CO., LTD., priority 2019, dated 2026).
# What was measured:
# JAK1 = JAK1 (Homo sapiens, UniProt P23458); experiment: JAK1 IC50 measurement; assay type: biochemical
# JAK3 [1] = biological target: T1, JAK3 (Homo sapiens, UniProt P52333); experiment: JAK3 IC50 measurement; assay type: biochemical
# T1 sequence (P52333 1-1124): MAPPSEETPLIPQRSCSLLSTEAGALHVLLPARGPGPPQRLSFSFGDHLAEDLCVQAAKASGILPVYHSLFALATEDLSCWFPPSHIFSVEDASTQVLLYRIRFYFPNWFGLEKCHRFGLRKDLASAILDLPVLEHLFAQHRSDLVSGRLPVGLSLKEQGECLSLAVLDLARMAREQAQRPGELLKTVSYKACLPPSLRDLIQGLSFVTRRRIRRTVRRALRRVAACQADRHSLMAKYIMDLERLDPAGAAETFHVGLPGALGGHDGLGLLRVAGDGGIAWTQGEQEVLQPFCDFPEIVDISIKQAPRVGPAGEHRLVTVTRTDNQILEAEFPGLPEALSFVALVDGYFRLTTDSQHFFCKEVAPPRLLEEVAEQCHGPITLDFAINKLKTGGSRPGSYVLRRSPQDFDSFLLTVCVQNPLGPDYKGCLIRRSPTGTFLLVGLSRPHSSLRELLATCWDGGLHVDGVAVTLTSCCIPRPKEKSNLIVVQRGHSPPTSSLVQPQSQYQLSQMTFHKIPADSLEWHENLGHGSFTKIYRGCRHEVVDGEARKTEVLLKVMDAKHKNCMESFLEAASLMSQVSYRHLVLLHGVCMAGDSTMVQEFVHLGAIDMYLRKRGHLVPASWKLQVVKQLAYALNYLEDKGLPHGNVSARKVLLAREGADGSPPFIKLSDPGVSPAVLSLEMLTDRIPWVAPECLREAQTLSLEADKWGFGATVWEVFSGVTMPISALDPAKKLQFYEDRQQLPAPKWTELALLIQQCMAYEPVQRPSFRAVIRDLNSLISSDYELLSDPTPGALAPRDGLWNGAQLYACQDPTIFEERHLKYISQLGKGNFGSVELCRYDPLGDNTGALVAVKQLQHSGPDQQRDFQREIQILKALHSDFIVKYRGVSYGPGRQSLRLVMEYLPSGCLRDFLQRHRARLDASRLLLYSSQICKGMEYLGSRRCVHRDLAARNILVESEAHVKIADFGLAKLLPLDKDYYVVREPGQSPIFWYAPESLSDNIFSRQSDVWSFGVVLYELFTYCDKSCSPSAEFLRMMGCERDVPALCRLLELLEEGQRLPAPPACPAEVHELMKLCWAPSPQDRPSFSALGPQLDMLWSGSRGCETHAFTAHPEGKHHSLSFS
# JAK2 = JAK2 (Homo sapiens, UniProt O60674); experiment: JAK2 IC50 measurement; assay type: biochemical
# Chain of JAK2 (O60674 whole entry): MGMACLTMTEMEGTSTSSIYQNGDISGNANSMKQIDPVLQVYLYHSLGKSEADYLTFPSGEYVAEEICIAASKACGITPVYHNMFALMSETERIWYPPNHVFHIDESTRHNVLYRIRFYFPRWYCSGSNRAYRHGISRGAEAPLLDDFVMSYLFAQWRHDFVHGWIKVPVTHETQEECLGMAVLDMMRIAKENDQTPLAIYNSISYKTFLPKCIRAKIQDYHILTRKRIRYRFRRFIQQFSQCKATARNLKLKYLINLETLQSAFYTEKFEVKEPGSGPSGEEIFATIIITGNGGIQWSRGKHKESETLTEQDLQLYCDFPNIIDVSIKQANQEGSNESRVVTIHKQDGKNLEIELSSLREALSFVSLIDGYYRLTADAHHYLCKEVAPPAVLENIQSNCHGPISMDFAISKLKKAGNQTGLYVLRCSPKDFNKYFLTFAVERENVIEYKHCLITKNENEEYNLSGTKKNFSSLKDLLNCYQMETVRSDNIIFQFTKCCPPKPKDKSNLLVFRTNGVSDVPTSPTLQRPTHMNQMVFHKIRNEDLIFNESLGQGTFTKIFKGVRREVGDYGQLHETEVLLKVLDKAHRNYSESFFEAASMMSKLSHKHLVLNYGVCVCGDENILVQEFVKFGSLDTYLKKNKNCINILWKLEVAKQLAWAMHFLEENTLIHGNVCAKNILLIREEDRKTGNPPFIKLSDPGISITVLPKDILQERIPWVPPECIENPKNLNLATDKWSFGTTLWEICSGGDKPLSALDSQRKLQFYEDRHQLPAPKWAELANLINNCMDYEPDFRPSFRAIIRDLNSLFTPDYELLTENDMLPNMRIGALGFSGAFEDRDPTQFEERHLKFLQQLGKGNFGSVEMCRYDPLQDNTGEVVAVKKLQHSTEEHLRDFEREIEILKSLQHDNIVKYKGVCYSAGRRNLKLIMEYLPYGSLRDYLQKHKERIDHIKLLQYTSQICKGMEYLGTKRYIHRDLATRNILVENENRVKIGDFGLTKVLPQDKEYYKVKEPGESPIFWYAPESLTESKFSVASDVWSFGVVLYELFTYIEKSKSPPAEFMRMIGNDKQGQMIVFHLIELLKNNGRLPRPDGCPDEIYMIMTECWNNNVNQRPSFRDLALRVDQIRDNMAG
# TYK2 = TYK2 (Homo sapiens, UniProt P29597); experiment: TYK2 IC50 measurement; assay type: biochemical
# Chain of TYK2 (P29597 whole entry): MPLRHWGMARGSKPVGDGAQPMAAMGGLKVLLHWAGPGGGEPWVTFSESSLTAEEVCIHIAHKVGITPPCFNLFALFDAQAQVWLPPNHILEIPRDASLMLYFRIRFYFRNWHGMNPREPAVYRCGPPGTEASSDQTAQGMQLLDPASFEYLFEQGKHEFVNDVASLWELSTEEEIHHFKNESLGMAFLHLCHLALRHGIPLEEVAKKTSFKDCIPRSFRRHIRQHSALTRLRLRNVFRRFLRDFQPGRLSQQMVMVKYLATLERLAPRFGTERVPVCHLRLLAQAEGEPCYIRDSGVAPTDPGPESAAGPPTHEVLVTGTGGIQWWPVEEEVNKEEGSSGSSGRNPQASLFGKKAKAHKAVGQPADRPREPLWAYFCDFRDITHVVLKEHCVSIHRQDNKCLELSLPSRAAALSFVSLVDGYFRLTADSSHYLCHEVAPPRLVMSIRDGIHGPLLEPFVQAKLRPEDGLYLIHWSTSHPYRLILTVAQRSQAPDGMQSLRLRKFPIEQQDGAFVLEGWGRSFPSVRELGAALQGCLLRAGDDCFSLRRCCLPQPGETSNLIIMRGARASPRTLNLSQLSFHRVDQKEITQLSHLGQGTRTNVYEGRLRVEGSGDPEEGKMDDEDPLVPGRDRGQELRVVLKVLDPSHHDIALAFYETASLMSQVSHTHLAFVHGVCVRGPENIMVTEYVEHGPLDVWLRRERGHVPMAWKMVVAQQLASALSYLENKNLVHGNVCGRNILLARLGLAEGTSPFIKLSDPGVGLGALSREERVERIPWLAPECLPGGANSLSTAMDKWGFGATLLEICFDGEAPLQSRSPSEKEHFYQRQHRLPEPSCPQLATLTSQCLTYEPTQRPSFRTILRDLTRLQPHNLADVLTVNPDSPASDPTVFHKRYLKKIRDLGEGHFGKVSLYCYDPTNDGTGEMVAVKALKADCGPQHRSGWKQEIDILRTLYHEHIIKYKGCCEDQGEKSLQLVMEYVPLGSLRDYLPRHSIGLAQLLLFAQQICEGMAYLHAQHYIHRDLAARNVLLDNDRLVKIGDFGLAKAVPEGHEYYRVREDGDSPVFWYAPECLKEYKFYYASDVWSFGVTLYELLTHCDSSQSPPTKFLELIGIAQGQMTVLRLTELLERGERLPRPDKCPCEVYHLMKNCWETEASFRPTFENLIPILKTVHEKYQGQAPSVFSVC
# JAK3 [2] = biological target: T1, JAK3; experiment: Cell-based assay on Janus kinase inhibitors, JAK3 (GI50)
# Chain of JAK1 (P23458 whole entry): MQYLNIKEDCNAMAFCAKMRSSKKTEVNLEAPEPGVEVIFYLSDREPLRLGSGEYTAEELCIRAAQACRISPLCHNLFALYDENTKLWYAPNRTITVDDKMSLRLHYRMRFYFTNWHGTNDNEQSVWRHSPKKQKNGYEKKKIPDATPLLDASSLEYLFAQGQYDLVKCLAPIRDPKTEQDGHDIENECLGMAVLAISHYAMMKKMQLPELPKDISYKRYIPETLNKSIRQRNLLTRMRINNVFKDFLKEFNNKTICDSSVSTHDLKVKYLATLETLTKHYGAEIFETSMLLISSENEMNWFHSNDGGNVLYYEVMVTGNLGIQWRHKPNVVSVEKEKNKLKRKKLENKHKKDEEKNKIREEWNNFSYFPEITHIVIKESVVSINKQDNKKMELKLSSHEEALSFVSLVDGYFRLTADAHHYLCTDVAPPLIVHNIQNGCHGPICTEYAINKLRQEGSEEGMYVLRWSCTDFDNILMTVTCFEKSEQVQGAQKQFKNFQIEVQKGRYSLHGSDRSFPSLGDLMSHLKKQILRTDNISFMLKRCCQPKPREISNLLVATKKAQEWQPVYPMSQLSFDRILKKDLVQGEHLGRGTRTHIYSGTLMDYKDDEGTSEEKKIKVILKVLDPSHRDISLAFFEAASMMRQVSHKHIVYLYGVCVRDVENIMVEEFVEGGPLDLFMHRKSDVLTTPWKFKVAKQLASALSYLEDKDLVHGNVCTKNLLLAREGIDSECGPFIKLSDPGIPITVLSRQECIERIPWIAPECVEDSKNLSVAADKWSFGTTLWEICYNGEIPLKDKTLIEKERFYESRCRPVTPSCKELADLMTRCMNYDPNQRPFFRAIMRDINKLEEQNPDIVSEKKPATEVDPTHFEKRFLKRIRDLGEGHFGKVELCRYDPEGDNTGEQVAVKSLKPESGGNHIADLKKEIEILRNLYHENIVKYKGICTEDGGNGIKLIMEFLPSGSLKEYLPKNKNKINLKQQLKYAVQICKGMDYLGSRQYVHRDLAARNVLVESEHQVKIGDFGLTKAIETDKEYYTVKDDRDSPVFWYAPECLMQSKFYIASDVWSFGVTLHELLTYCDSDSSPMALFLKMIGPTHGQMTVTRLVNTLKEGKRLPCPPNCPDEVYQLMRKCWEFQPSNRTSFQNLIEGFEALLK
smiles,measurement,setting,value
"CNC(=O)c1cnc2[nH]ccc2c1NC1CC(NCc2ccccc2)C1 (stereo not drawn) [Compound 16a, 4-((3-(Benzylamino)cyclobutyl)amino)-N-methyl-1H-pyrrolo[2,3-b]pyridine-5-carboxamide]",IC50,JAK1,0.13 µM
"CNC(=O)c1cnc2[nH]ccc2c1N[C@H]1CCCN(Cc2cccc(OC)c2)C1 [Compound 18b, (S)-4-((1-(3-Methoxybenzyl)piperidin-3-yl)amino)-N-methyl-1H-pyrrolo[2,3-b]pyridine-5-carboxamide]",IC50,JAK3 [1],3.43 µM
same,Selectivity for JAK1 JAK3/JAK1,JAK3 [1]; ratio of IC50 values,4.92
same,IC50,JAK2,0.533 µM
same,Selectivity for JAK1 JAK2/JAK1,JAK2,0.764
same,IC50,TYK2,1.79 µM
same,Selectivity for JAK1 TYK2/JAK1,TYK2,2.56
same,IC50,JAK1,0.697 µM
"CNC(=O)c1cnc2[nH]ccc2c1NC1CC(NCc2cccc(Cl)c2)C1 (stereo not drawn) [Compound 16b, 4-((3-((3-Chlorobenzyl)amino)cyclobutyl)amino)-N-methyl-1H-pyrrolo[2,3-b]pyridine-5-carboxamide]",IC50,JAK1,0.016 µM
"CNC(=O)c1cnc2[nH]ccc2c1NC1CC2CCC(C1)N2Cc1cccc(C#N)c1 (stereo not drawn) [Compound 17f, 4-((8-(3-Cyanobenzyl)-8-azabicyclo[3.2.1]octan-3-yl)amino)-N-methyl-1H-pyrrolo[2,3-b]pyridine-5-carboxamide]",IC50,JAK3 [1],0.0447 µM
same,IC50,JAK2,0.0588 µM
same,IC50,TYK2,0.0922 µM
"CNC(=O)c1cnc2[nH]ccc2c1NC1CC(NCc2ccc(Cl)cc2)C1 (stereo not drawn) [Compound 16c, 4-((3-((4-Chlorobenzyl)amino)cyclobutyl)amino)-N-methyl-1H-pyrrolo[2,3-b]pyridine-5-carboxamide]",IC50,JAK1,0.0138 µM
"CNC(=O)c1cnc2[nH]ccc2c1N[C@H]1CCCN(Cc2cccc(Cl)c2)C1 [Compound 18a, (S)-4-((1-(3-Chlorobenzyl)piperidin-3-yl)amino)-N-methyl-1H-pyrrolo[2,3-b]pyridine-5-carboxamide]",IC50,JAK1,1.87 µM
"CNC(=O)c1cnc2[nH]ccc2c1N[C@@H]1CCN(Cc2cccc(Cl)c2)[C@@H](C)C1 (relative stereo) [Compound 20b, 4-((trans-1-(3-Chlorobenzyl)-2-methylpiperidin-4-yl)amino)-N-methyl-11H-pyrrolo[2,3-b]pyridine-5-carboxamide]",GI50,JAK3 [2],8.24 µM
